{
  "source": "ChEMBL document CHEMBL5365481",
  "about": "“Design, Synthesis, and Activity Evaluation of Novel Dual-Target Inhibitors with Antifungal and Immunoregulatory Properties” (J Med Chem, 2023)",
  "key": {"[1]": {"test_system": "Candida albicans", "assay": "Induction of mitochondrial membrane depolarization in Candida albicans ATCC SC5314 assessed as normal cells at 1 microM/ml incubated for 24 hrs by JC-1 staining based flow cytometry assay (reference value: 94.4 +/- 1.15%)", "assay_type": "functional"}, "[2]": {"test_system": "Pichia kudriavzevii", "assay": "Antifungal activity against Candida krusei ATCC 6258 assessed as inhibition of fungal growth incubated for 72 hrs by CLSI based liquid medium microdilution method", "assay_type": "functional"}, "[3]": {"test_system": "Candida albicans", "assay": "Induction of apoptosis in Candida albicans ATCC SC5314 assessed as late apoptotic cells at 1 microM/ml incubated for 48 hrs by Hoechst 33258/PI staining based flow cytometry (Rvb= 0.05 +/- 0.01%)", "assay_type": "functional"}, "[4]": {"test_system": "Candida tropicalis", "assay": "Antifungal activity against Candida tropicalis ATCC 1369 assessed as inhibition of fungal growth incubated for 72 hrs by CLSI based liquid medium microdilution method", "assay_type": "functional"}, "[5]": {"test_system": "Candida albicans", "assay": "Induction of mitochondrial membrane depolarization in Candida albicans ATCC SC5314 assessed as polarized cells at 1 microM/ml incubated for 24 hrs by JC-1 staining based flow cytometry assay (reference value: 0.28 +/- 0.02%)", "assay_type": "functional"}, "[6]": {"test_system": "Candida albicans", "assay": "In vivo antifungal activity against Candida albicans ATCC SC5314 infected in BALB/c mouse assessed as decrease in NLRP3 expression level at 10 ug, ip for 14 days by Western blot analysis", "assay_type": "functional, organism-based", "details": "dose 10.0 µg, time 14.0 day"}, "[7]": {"test_system": "Candida albicans", "assay": "Antifungal activity against fluconazole-resistant Candida albicans 17# assessed as inhibition of fungal growth incubated for 72 hrs by CLSI based liquid medium microdilution method", "assay_type": "functional"}, "[8]": {"biological_target": "T1, Lanosterol 14-alpha demethylase (Candida albicans (strain SC5314 / ATCC MYA-2876) (Yeast), UniProt P10613)", "T1 sequence (P10613 whole entry)": "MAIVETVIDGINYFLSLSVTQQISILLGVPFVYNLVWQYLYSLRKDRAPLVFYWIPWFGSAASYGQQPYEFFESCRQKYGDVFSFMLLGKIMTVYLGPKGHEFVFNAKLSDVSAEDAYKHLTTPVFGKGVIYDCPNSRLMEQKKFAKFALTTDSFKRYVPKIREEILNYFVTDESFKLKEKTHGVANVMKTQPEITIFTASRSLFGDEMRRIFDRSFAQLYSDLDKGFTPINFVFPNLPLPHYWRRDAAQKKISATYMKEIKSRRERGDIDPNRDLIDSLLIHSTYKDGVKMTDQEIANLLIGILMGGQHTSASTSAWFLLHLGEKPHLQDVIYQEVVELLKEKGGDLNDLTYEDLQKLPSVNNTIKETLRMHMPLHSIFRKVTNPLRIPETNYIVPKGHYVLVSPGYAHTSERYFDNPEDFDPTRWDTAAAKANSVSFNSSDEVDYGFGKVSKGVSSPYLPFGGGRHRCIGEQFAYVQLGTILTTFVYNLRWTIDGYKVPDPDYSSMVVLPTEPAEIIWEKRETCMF", "assay": "Inhibition of Candida albicans ATCC SC5314 CYP51 using lanosterol as substrate incubated for 30 mins by HPLC assay"}, "[9]": {"test_system": "Candida albicans", "assay": "Induction of apoptosis in Candida albicans ATCC SC5314 assessed as normal cells at 1 microM/ml incubated for 48 hrs by Hoechst 33258/PI staining based flow cytometry (Rvb= 94.8 +/- 0.3%)", "assay_type": "functional"}, "[10]": {"test_system": "Candida albicans", "assay": "Antifungal activity against Candida albicans ATCC SC5314 assessed as inhibition of fungal growth incubated for 72 hrs by CLSI based liquid medium microdilution method", "assay_type": "functional"}, "[11]": {"test_system": "Candida albicans", "assay": "Induction of apoptosis in Candida albicans ATCC SC5314 assessed as early apoptotic cells at 1 microM/ml incubated for 48 hrs by Hoechst 33258/PI staining based flow cytometry (Rvb= 5.1 +/- 0.3%)", "assay_type": "functional"}, "[12]": {"biological_target": "T1, Lanosterol 14-alpha demethylase", "assay": "Inhibition of Candida albicans ATCC SC5314 CYP51 assessed as lanosterol content at 4 ug/ml measured after 16 hrs by GC-MS analysis relative to control", "parameters": "scale not given: the % may be the effect or the level left", "details": "at 4 µg/mL"}, "[13]": {"test_system": "Candida albicans", "assay": "Induction of mitochondrial membrane depolarization in Candida albicans ATCC SC5314 assessed as depolarized cells at 1 microM/ml incubated for 24 hrs by JC-1 staining based flow cytometry assay (reference value: 0.3 to 5.1%)", "assay_type": "functional"}, "[14]": {"test_system": "Candida albicans", "assay": "Antifungal activity against fluconazole-resistant Candida albicans 632 assessed as inhibition of fungal growth incubated for 72 hrs by CLSI based liquid medium microdilution method", "assay_type": "functional"}, "[15]": {"test_system": "Candida albicans", "assay": "Induction of apoptosis in Candida albicans ATCC SC5314 assessed as increase in blue fluorescence intensity at 1 microM/ml incubated for 48 hrs by Hoechst 33258/PI staining based fluorescence microscopy", "assay_type": "functional, organism-based"}, "[16]": {"test_system": "Candida albicans", "assay": "Antifungal activity against fluconazole-resistant Candida albicans 904 assessed as inhibition of fungal growth incubated for 72 hrs by CLSI based liquid medium microdilution method", "assay_type": "functional"}, "[17]": {"biological_target": "Programmed cell death 1 ligand 1 (Homo sapiens, UniProt Q9NZQ7)", "sequence (Q9NZQ7 whole entry)": "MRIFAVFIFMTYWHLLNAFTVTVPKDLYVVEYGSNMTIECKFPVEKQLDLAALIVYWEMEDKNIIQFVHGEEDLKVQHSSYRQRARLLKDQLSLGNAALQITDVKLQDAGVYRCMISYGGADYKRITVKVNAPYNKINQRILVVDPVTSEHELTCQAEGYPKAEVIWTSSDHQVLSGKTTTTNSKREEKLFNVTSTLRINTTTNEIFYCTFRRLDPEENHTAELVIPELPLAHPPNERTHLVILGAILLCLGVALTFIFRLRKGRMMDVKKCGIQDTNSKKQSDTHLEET", "assay": "Binding affinity to PD-L1 (unknown origin) assessed as dissociation constant by SPR analysis"}, "[18]": {"test_system": "Candida albicans", "assay": "In vivo antifungal activity against Candida albicans ATCC SC5314 infected in BALB/c mouse assessed as decrease in COX2 expression level at 10 ug, ip for 14 days by Western blot analysis", "assay_type": "functional, organism-based", "details": "dose 10.0 µg, time 14.0 day"}, "[19]": {"biological_target": "Programmed cell death protein 1/Programmed cell death 1 ligand 1 (Homo sapiens, UniProt Q9NZQ7)", "sequence (Q15116 whole entry)": "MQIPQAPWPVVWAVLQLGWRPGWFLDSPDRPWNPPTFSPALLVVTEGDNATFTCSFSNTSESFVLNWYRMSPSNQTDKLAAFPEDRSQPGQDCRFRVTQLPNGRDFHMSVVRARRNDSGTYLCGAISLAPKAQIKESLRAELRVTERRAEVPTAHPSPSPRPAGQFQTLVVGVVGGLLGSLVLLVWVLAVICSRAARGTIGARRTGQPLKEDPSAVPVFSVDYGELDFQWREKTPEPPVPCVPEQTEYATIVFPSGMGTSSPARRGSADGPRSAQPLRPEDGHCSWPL", "sequence (Q9NZQ7 whole entry)": "as the sequence (Q9NZQ7 whole entry) above", "assay": "Inhibition of PD-1/PD-L1 interaction (unknown origin) incubated for 15 mins by ELISA", "assay_type": "protein-complex assay"}, "[20]": {"test_system": "Cryptococcus neoformans", "assay": "Antifungal activity against Cryptococcus neoformans ZKCC 2209 assessed as inhibition of fungal growth incubated for 72 hrs by CLSI based liquid medium microdilution method", "assay_type": "functional"}, "[21]": {"test_system": "Candida albicans", "assay": "Antifungal activity against Candida albicans ATCC SC5314 assessed as decrease in fungal cell density at 1 microM/ml incubated for 48 hrs by absorbance based assay", "assay_type": "functional, organism-based"}, "[22]": {"biological_target": "T1, Lanosterol 14-alpha demethylase", "assay": "Inhibition of Candida albicans ATCC SC5314 CYP51 assessed as eburicol content at 4 ug/ml measured after 16 hrs by GC-MS analysis (Rvb= 3.47%)", "parameters": "scale not given: the % may be the effect or the level left", "details": "at 4 µg/mL"}, "[23]": {"biological_target": "T1, Lanosterol 14-alpha demethylase", "assay": "Inhibition of Candida albicans ATCC SC5314 CYP51 assessed as ergosterol content at 4 ug/ml measured after 16 hrs by GC-MS analysis (reference value: 92.71%)", "parameters": "scale not given: the % may be the effect or the level left", "details": "at 4 µg/mL"}, "[24]": {"test_system": "Candida albicans", "assay": "Induction of apoptosis in Candida albicans ATCC SC5314 assessed as necrotic cells at 1 microM/ml incubated for 48 hrs by Hoechst 33258/PI staining based flow cytometry (Rvb= 0.03 +/- 0.01%)", "assay_type": "functional"}, "[25]": {"test_system": "Candida albicans", "assay": "Antifungal activity against Candida albicans ATCC SC5314 assessed as change in structural stability at 1 microM/ml incubated for 48 hrs by absorbance based assay", "assay_type": "functional, organism-based"}, "[26]": {"biological_target": "T1, Lanosterol 14-alpha demethylase", "assay": "Inhibition of Candida albicans ATCC SC5314 CYP51 assessed as other unknown sterol content at 4 ug/ml measured after 16 hrs by GC-MS analysis (Rvb= 3.82%)", "parameters": "scale not given: the % may be the effect or the level left", "details": "at 4 µg/mL"}, "[27]": {"test_system": "Candida albicans", "assay": "In vivo antifungal activity against Candida albicans ATCC SC5314 infected in BALB/c mouse assessed as decrease in IFN-gamma expression level at 10 ug, ip for 14 days by Western blot analysis", "assay_type": "functional, organism-based", "details": "dose 10.0 µg, time 14.0 day"}, "[28]": {"test_system": "Candida albicans", "assay": "Antifungal activity against Candida albicans ATCC SC5314 assessed as change in osmotic pressure at 1 microM/ml incubated for 48 hrs by absorbance based assay", "assay_type": "functional, organism-based"}, "[29]": {"test_system": "Candida albicans", "assay": "Antifungal activity against fluconazole-resistant Candida albicans CaR assessed as inhibition of fungal growth incubated for 72 hrs by CLSI based liquid medium microdilution method", "assay_type": "functional"}, "[30]": {"test_system": "Candida albicans", "assay": "Antifungal activity against fluconazole-resistant Candida albicans 901 assessed as inhibition of fungal growth incubated for 72 hrs by CLSI based liquid medium microdilution method", "assay_type": "functional"}, "[31]": {"test_system": "Aspergillus fumigatus", "assay": "Antifungal activity against Aspergillus fumigatus KM8001 assessed as inhibition of fungal growth incubated for 72 hrs by CLSI based liquid medium microdilution method", "assay_type": "functional"}, "[32]": {"test_system": "Candida albicans", "assay": "In vivo antifungal activity against Candida albicans ATCC SC5314 infected in BALB/c mouse assessed as decrease in PD-L1 expression level at 10 ug, ip for 14 days by Western blot analysis", "assay_type": "functional, organism-based", "details": "dose 10.0 µg, time 14.0 day"}, "[33]": {"test_system": "Candida albicans", "assay": "Induction of ROS generation in Candida albicans ATCC SC5314 assessed as increase in fluorescence intensity at 1 microM/ml incubated for 48 hrs by fluorescent microscopy", "assay_type": "functional, organism-based"}},
  "note": "Active and inactive are the calls of the source. The calls are words filed in the database; no cut-off is given here.",
  "data": [
    {"smiles": "CC(=O)c1ccc(NC(=O)c2nc(-n3ccnc3)c3ccccc3n2)cc1", "values": [
      {"measurement": "Activity", "setting": "[1]", "value": 77.1, "unit": "%"},
      {"measurement": "MIC50", "setting": "[2]", "value": 1, "unit": "µg/mL"},
      {"measurement": "Activity", "setting": "[3]", "value": 0.13, "unit": "%"},
      {"measurement": "MIC50", "setting": "[4]", "value": 1, "unit": "µg/mL"},
      {"measurement": "Activity", "setting": "[5]", "value": 0.07, "unit": "%"},
      {"measurement": "Activity", "setting": "[6]", "value": "Active"},
      {"measurement": "MIC50", "setting": "[7]", "value": 2, "unit": "µg/mL"},
      {"measurement": "IC50", "setting": "[8]", "value": 0.884, "unit": "µM"},
      {"measurement": "Activity", "setting": "[9]", "value": 55.1, "unit": "%"},
      {"measurement": "MIC50", "setting": "[10]", "value": 0.5, "unit": "µg/mL"},
      {"measurement": "Activity", "setting": "[11]", "value": 44.8, "unit": "%"},
      {"measurement": "Activity", "setting": "[12]", "value": 20.64, "unit": "%"},
      {"measurement": "Activity", "setting": "[13]", "value": 0.16, "unit": "%"},
      {"measurement": "MIC50", "setting": "[14]", "value": 2, "unit": "µg/mL"},
      {"measurement": "Activity", "setting": "[15]", "value": "Active"},
      {"measurement": "MIC50", "setting": "[16]", "value": 4, "unit": "µg/mL"},
      {"measurement": "Kd", "setting": "[17]", "value": 0.0345, "unit": "µM"},
      {"measurement": "Activity", "setting": "[18]", "value": "Active"},
      {"measurement": "IC50", "setting": "[19]", "value": 0.083, "unit": "µM"},
      {"measurement": "MIC50", "setting": "[20]", "value": 1, "unit": "µg/mL"},
      {"measurement": "Activity", "setting": "[21]", "value": "Active"},
      {"measurement": "Activity", "setting": "[22]", "value": 41.69, "unit": "%"},
      {"measurement": "Activity", "setting": "[23]", "value": 21.53, "unit": "%"},
      {"measurement": "Activity", "setting": "[24]", "value": 0.03, "unit": "%"},
      {"measurement": "Activity", "setting": "[25]", "value": "Active"},
      {"measurement": "Activity", "setting": "[26]", "value": 6.14, "unit": "%"},
      {"measurement": "Activity", "setting": "[27]", "value": "Active"},
      {"measurement": "Activity", "setting": "[28]", "value": "Active"},
      {"measurement": "MIC50", "setting": "[29]", "value": 4, "unit": "µg/mL"},
      {"measurement": "MIC50", "setting": "[30]", "value": "> 8", "unit": "µg/mL"},
      {"measurement": "MIC50", "setting": "[31]", "value": 2, "unit": "µg/mL"},
      {"measurement": "Activity", "setting": "[32]", "value": "Active"},
      {"measurement": "Activity", "setting": "[33]", "value": "Active"}
    ]}
  ]
}
